From paper PMC4608580, “Synthesis and Evaluation of Biological Activity of Antimicrobial – Pro-Proliferative Peptide Conjugates” (PLoS ONE, 2015)

Experiments:
Proteus mirabilis = assay: MIC, broth microdilution; format: cell-based; settings: Mueller-Hinton broth, approximately 10^5 CFU/mL, 37°C, 24 h, absorbance 590 nm, at least triplicate
Protocol: Luria-Bertani broth (LB) and Sabouraud Dextrose broth (SB) (Biocorp, Poland) were used for cultivation of bacteria and fungi strains, respectively. Antimicrobial activity of peptides was analyzed through determination of MIC (minimal inhibitory concentration) parameter according to the standard microdilution technique performed on 96-well plates. Mueller-Hinton broth (MHB) was used as the working medium for all bacterial strains, while in case of fungi it was additionally supplemented with 2% glucose.
Briefly, inoculum was prepared from freshly grown cultures of microorganisms being at their exponential phase of growth. […] Then plates were incubated overnight at 37°C and absorbance was read at 590 nm after 24 h. […]
All peptides were screened against the wide range of microorganisms, including Gram-negative, Gram-positive bacteria and fungi from Candida species (Table 2). […] All assays were performed on liquid Mueller-Hinton broth, which was additionally supplemented with 2% glucose when fungicidal activity towards Candida spps. was analyzed.

[1] = tested on: human primary dermal fibroblasts; assay: Cell migration assay (in vitro scratch test); format: cell-based; settings: 25 μg/mL, 24 h
Protocol: Biopsies of healthy human skin were obtained aseptically from three donors (47–69 years old) undergoing circumcision after obtaining their written informed consent. All the procedures were approved by the Ethics Committee of Medical University of Gdansk (NKEBN/483/2011. Issued: 2011-12-19). The samples were washed several times with sterile PBS (Sigma-Aldrich, Germany) containing antibiotic (200 U/mL penicillin and 200 μg/mL streptomycin), after which, the subcutaneous tissue was cut off with a sharp blade. The resulting sheets were cut into small fragments, washed two times with sterile PBS and treated with 6 U/mL dispase II (BD, USA) overnight at 4°C to separate epidermis and dermis. The dermis was then digested with 1.0 mg/mL collagenase type I (from Clostridium histolyticum Sigma-Aldrich, Germany) for 2 hours at 37°C to isolate fibroblasts. Cells were used between the 2nd and 4th passage in all experiments.
Fibroblasts and keratinocytes were seeded (5x10^5 cells/well) in 6-well plates. When desired monolayer confluence was reached, cells were starved for 24 hours in serum-free DMEM. The monolayer was scratched then with 200μL-pipette tip. […] The wounded areas were then photographed by means of Zeiss Observer D1 microscope equipped with camera AxioCam and analyzed with AxioVision software (Carl Zeiss, Germany). Migration activity of the cells treated with the tested peptides were expressed as the percentage of the wounded area with respect to the control probe (cell cultures without any of the peptide), assumed as 100%.
An in vitro scratch test was performed to investigate the effect of the analyzed compounds on keratinocytes and fibroblasts migration. […]
Fig 2 Effect of the peptides on HaCaT keratinocytes and fibroblasts cell migration in the in vitro scratch test. […] Migration was analyzed after 24 hours by means of Zeiss Observer D1 microscope, wounding areas were analyzed with AxioVision software and expressed as the percentage of the wound width in comparison to the control sample (cells incubated in DMEM without FCS). […]

HaCaT keratinocytes = assay: Cell migration assay (in vitro scratch test); format: cell-based, human; settings: 25 μg/mL, 24 h, serum-free DMEM, Mitomycin C 5 μg/mL, vs. control without peptide, three independent experiments
Protocol: Fibroblasts and keratinocytes were seeded (5x10^5 cells/well) in 6-well plates. When desired monolayer confluence was reached, cells were starved for 24 hours in serum-free DMEM. The monolayer was scratched then with 200μL-pipette tip. The floating cells and cell debris were removed by double washing in PBS, further replaced with a fresh serum-free medium. Wounded monolayers were incubated for the next 24 h in the presence of tested peptides used at concentration of 25 μg/mL and 5 μg/mL of Mitomycin C (Sigma Aldrich) to prevent proliferation. At the end of the experiment medium was removed and the cells were fixed with 3.7% PFA for 5 min, stained for the next 30 min with 0.05% crystal violet solution, washed several times with distilled water and the plates were left inverted for a couple of minutes to drain. The wounded areas were then photographed by means of Zeiss Observer D1 microscope equipped with camera AxioCam and analyzed with AxioVision software (Carl Zeiss, Germany). Migration activity of the cells treated with the tested peptides were expressed as the percentage of the wounded area with respect to the control probe (cell cultures without any of the peptide), assumed as 100%.
An in vitro scratch test was performed to investigate the effect of the analyzed compounds on keratinocytes and fibroblasts migration. Evaluation was based on the efficiency of the invasion of the monolayer cells to the prewounded area within 24 h after stimulation with the appropriate compound added at concetration of 25μg/mL.
Fig 2 Effect of the peptides on HaCaT keratinocytes and fibroblasts cell migration in the in vitro scratch test. HaCaT cells and fibroblasts were grown in 6-well plates until the 100% confluence was reached, then cells were starved for the next 12 hours in DMEM without 10% FCS and scratched once vertically with a 200μL pipette tip. After being washed two times with sterile PBS, a fresh portion of DMEM medium was added and cells were treated with the tested peptides applied at their optimal doses (25 μg/mL). Migration was analyzed after 24 hours by means of Zeiss Observer D1 microscope, wounding areas were analyzed with AxioVision software and expressed as the percentage of the wound width in comparison to the control sample (cells incubated in DMEM without FCS). Control+ FCS corresponds to the sample with cells incubated in the medium containing 10% FCS and was treated as the additional positive control. Data represent the mean ± SD of three independent experiments. *P < 0.05, **P < 0.01, ***P < 0.001 vs. control.

Substance | MIC P.mirabilis (Proteus mirabilis) | Inhibitory effect on fibroblast migration in comparison to the control ([1]; scratch test) | Effect on keratinocyte migration (scratch test), in words (HaCaT keratinocytes) | Effect on fibroblast migration (scratch test), in words ([1]; serum-free DMEM, Mitomycin C 5 μg/mL, vs. control without peptide, three independent experiments)
IKKILSKIKKLL-NH2 [DK5, Lys-rich derivative of amphibian AMP temporin-1CEb, …-NH2, reference compound] | NI ^a) | ~50% | – | –
YAGFLR-PEG-IKKILSKIKKLL-NH2 [DAL-PEG-DK5, conjugate of dalargin and DK5 joined by PEG-linker] | – | – | neutral or slightly stimulative | neutral or slightly stimulative
